“And” between values parts separate entries of the source, which are not always exact repeats. Equal entries are not always repeated. Where two headings read alike, the source gives them in different places.
Columns and labels:
[1] = tested on: MTX-sensitive HT-1080 tumor xenograft; test: Tumor response (in vivo surviving fraction) with leucovorin rescue, HT-1080 xenograft; set-up: species or system athymic nude mice
Description: At 6 hours post 3′-fluoromethotrexate administration mice received i.p. hydration of 1.0 cc normal saline and at 24 hours received leucovorin (Bedford Laboratories, Bedford, Ohio) rescue therapy (36). This protocol allows the mice to survive what would otherwise be a fatal dosage of 3′-fluoromethotrexate and is analogous to that used in high-dose MTX therapy in humans. Tumor growth was monitored post-therapy.
The 3 perpendicular axes of the tumor were measured with a micrometer and the tumor volume modeled as a spheroid, i.e., v=π/6a·b·c, where a, b, c are the dimensions of the tumor axes in cm.
The parameter DT0 is the mean doubling time of the untreated, control group for each xenograft tumor model and TGD is the tumor growth delay for the treated tumor (the difference in tumor doubling time between the treated tumor and DT0).
Analysis of the tumor growth post-therapy allows for a comparison of the efficacy of MTX and 3′-fluoromethotrexate in terms of SF, the fraction of cells in the pretreatment tumor surviving therapy (Eqn. 3).

[2] = tested on: human sarcoma cell line HT-1080; test: In vitro cytotoxicity against HT-1080, XTT/PMS cell viability assay

For “N-(2-Fluoro-4-amino-4-deoxy-N-methyl-pteroyl)-L-glutamic acid [FMTX]”, the “SF, in vivo surviving fraction” value ([1]; mouse, in vivo) was 0.29±0.06 and 0.42±0.04, the IC50 ([2]; read-out: IC50 for 24 h drug exposure, normal medium = RPMI-1640 medium + 10% FCS, 24 h exposure) was 345 ± 117 nM and the IC50 ([2]; read-out: IC50 for 24 h drug exposure, treated medium = thymidine-free RPMI-1640 + 10% FCS, 24 h exposure) was 26 ± 5 nM.

In the case of CN(Cc1cnc2nc(N)nc(N)c2n1)c1ccc(C(=O)N[C@@H](CCC(=O)O)C(=O)O)cc1 [MTX, methotrexate], the “SF, in vivo surviving fraction” value ([1]; 200 mg/kg, HT-1080 model) is reported as 0.64±0.08, the “SF, in vivo surviving fraction” value ([1]; 400 mg/kg i.v. bolus, HT-1080 model) is reported as 0.56±0.07 and the IC50 ([2]; Homo sapiens, HT-1080, 24 h, read-out: IC50 for 24 h drug exposure, normal medium = RPMI-1640 medium + 10% FCS, 24 h exposure) is reported as 445 ± 148 nM. For the same compound, the IC50 ([2]; Homo sapiens, HT-1080, 24 h, read-out: IC50 for 24 h drug exposure, treated medium = thymidine-free RPMI-1640 + 10% FCS, 24 h exposure) was 69 ± 19 nM.

From patent US20040259878A1, “Fluoromethotrexates and uses therefor” (priority 2003, published 2004)
